{"source": "patent US20190209581A1", "about": "“DOSAGE REGIMEN FOR TREATMENT OF SOLID TUMORS” (Eli Lilly and Company, priority 2016, published 2019)", "key": {"[1]": {"test_system": "SW480 human colorectal cell line", "assay": "Tumor growth inhibition, SW480 xenograft", "type": "in vivo", "conditions": "SW480 in mice, oral 8 mg/kg, (Mon, Wed, Fri)x5; p <0.0001", "protocol": "(§1) To evaluate in vivo efficacy and effect of 4,4,4-Trifluoro-N-[(1S)-2-[[(7S)-5-(2-hydroxyethyl)-6-oxo-7H-pyrido[2,3-d][3]benzazepin-7-yl]amino]-1-methyl-2-oxo-ethyl]butanamide on inhibition of Notch processing pharmacodynamics (PD), several cell lines- and patient-derived xenograft models are used. A2780 is a human ovarian cell line (Sigma-Aldrich, No. 93112519); SW480 is a human colorectal cell line (ATCC No. CCL-228); HCT 116 is a human colorectal cell line (ATCC No. CCL-247); U-87 MG is a human glioblastoma cell line (ATCC No. HTB-14); A375 is a human malignant melanoma cell line (ATCC No. CRL-1619); K-562 is a human chronic myelogenous leukemia (CML) cell line characterized by the presence of a fusion transcript comprised of the Bcr and Abl1 genes (ATCC No. CCL-243); Jurkat; HEL 92.1.7 is a human erythroleukemia cell line (ATCC No. TIB-180). […] Tumor growth and body weight are monitored over time to evaluate efficacy and signs of toxicity. Bidimensional measurements of tumors are performed twice a week and tumor volumes are calculated based on the following formula: (Tumor Volume)=[(L)×(W2)×(Π/6)] where L is mid-axis length and W is mid-axis width. […] The log volume data are analyzed with a two-way repeated measures analysis of variance by time and treatment using the MIXED™ procedures in SAS™ software (version 8.2). […]"}, "[2]": {"test_system": "human colon carcinoma (EL1989)", "assay": "Tumor growth inhibition, patient-derived tumor model EL1989", "type": "in vivo", "conditions": "EL1989 in mice, oral 10 mg/kg (Q2Dx7), 11-days OFF, 8 mg/kg (Mon, Wed, Fri)x3; p <0.0001", "protocol": "as §1"}, "[3]": {"test_system": "human colon carcinoma (EL 1986)", "assay": "Tumor growth inhibition, patient-derived tumor model EL1986", "type": "in vivo", "conditions": "EL1986 in mice, oral 8 mg/kg, (Mon, Wed, Fri)x5; p <0.0001", "protocol": "as §1"}, "N1ICD (cleaved Notch1)": {"test_system": "N1ICD (cleaved Notch1)", "assay": "N1ICD analysis (ELISA) in xenograft tumors", "type": "in vivo, human", "conditions": "for % N1ICD Inhibition: 10 mg/kg (Q2Dx7), 11-days OFF", "protocol": "To evaluate in vivo efficacy and effect of 4,4,4-Trifluoro-N-[(1S)-2-[[(7S)-5-(2-hydroxyethyl)-6-oxo-7H-pyrido[2,3-d][3]benzazepin-7-yl]amino]-1-methyl-2-oxo-ethyl]butanamide on inhibition of Notch processing pharmacodynamics (PD), several cell lines- and patient-derived xenograft models are used. A2780 is a human ovarian cell line (Sigma-Aldrich, No. 93112519); SW480 is a human colorectal cell line (ATCC No. CCL-228); HCT 116 is a human colorectal cell line (ATCC No. CCL-247); U-87 MG is a human glioblastoma cell line (ATCC No. HTB-14); A375 is a human malignant melanoma cell line (ATCC No. CRL-1619); K-562 is a human chronic myelogenous leukemia (CML) cell line characterized by the presence of a fusion transcript comprised of the Bcr and Abl1 genes (ATCC No. CCL-243); Jurkat; HEL 92.1.7 is a human erythroleukemia cell line (ATCC No. TIB-180). Each of the cell lines are obtained from the American Type Culture Collection (ATCC) at the ATCC number stated, except the A2780 cell line which is obtained from Sigma-Aldrich at the stated catalog number. The cells are grown in their respective, recommended culture media at 37° C. in 5% CO2 with humidity in the atmosphere. A2780 (2×10^6), SW480 (6×10^6), HCT 116 (6×10^6), U-87 MG (6×10^6), and A-375 (10×10^6) cells in a 1:1 matrigel mix (0.2 mL volume) are implanted by subcutaneous injection in the hind leg of 6-8 weeks of age athymic nude female mice (Harlan Laboratories). K-562 (6×10^6) cells in a 1:1 matrigel mix (0.2 mL volume) are implanted by subcutaneous injection in the hind leg of 6-8 weeks of age CD1 nμ/nμ female mice (Charles River Laboratories). HEL 92.1.7 (7×10^6) in a 1:1 matrigel mix (0.2 mL volume) are implanted by subcutaneous injection in the hind leg of 6-8 weeks of age CB17 severely combined immune deficient female mice (Taconic Farms). Patient-derived tumors are minced into 1-2 mm pieces and mixed with matrigel (1:1) in 0.2 ml volume and implanted by subcutaneous injection in the hind leg of 6-8 weeks of age athymic nude female mice (Harlan Laboratories). Patients-derived tumor models include: human colon carcinoma (EL2144), human triple negative invasive ductal breast carcinoma (EL1997), human colon carcinoma (EL1989, EL 1986), and human glioblastoma (EL 2056) with samples obtained after patient consent and hospital approval from IU Health, Methodist Hospital, Indianapolis, Ind., USA 46206. A total of 7 to 10 mice are used for each group. Just before implantation for A2780, SW480, HEL 92.1.7, A-375, K-562, and patient-derived tumor models, animals are irradiated (450 Total Body Irradiation). Mice are fed ad libitum on normal chow. Treatment is initiated with oral administration (gavage) of compound or vehicle (1% Na-CMC in 0.25% Tween®-80) in 0.2 mL volume when tumor size reached to 150±50 mm^3. At designated time points following treatment, animals are sacrificed by CO2 asphyxiation and cervical dislocation. Tumors are removed and used for PD response analysis. Tumor growth and body weight are monitored over time to evaluate efficacy and signs of toxicity. Bidimensional measurements of tumors are performed twice a week and tumor volumes are calculated based on the following formula: (Tumor Volume)=[(L)×(W2)×(Π/6)] where L is mid-axis length and W is mid-axis width. Tumor volume data are transformed to a log scale to equalize variance across time and treatment groups. The log volume data are analyzed with a two-way repeated measures analysis of variance by time and treatment using the MIXED™ procedures in SAS™ software (version 8.2). The correlation model for the repeated measures is spatial power. Treated groups are compared to the control group at each time point. The MIXED™ procedure is also used separately for each treatment group to calculate adjusted means and standard errors at each time point. Both analyses account for the autocorrelation within each animal and the loss of data that occurs when animals with large tumors are removed from the study early. […]"}, "[4]": {"assay": "Atropisomer equilibrium in solution by 1H NMR and LC-MS", "type": "physicochemical", "conditions": "ambient temperature, after 24 hours", "protocol": "In aqueous solutions, 8-9% of atropisomer 2 (minor atropisomer) is detected by ^1H NMR and LC-MS in equilibrium with atropisomer 1 (major atropisomer) at ambient temperature after 24 hours. In organic solvents, at ambient temperature after 24 hours, approximately 1-2% of atropisomer 2 is detected by ^1H NMR and LC-MS in equilibrium with atropisomer 1. Although detectable by ^1H NMR and LC-MS analysis, atropisomer 2 is not isolable."}, "[5]": {"conditions": "Homo sapiens, A2780, 4 h, A2780 tumors 4 hours after last dose, Q2Dx13, p <0.0001"}}, "data": [{"smiles": "C[C@H](NC(=O)CCC(F)(F)F)C(=O)N[C@@H]1C(=O)N(CCO)c2ncccc2-c2ccccc21", "note": "[Compound 1, 4,4,4-trifluoro-N-[(1S)-2-[[(7S)-5-(2-hydroxyethyl)-6-oxo-7H-pyrido[2,3-d][3]benzazepin-7-yl]amino]-1-methyl-2-oxo-ethyl]butanamide]", "values": [{"measurement": "% TGI", "setting": "[1]", "result": "61.00 (<0.0001) %"}, {"measurement": "% TGI", "setting": "[2]", "result": "70.42 (<0.0001) %"}, {"measurement": "% TGI", "setting": "[3]", "result": "62.00 (<0.0001) %"}, {"measurement": "% N1ICD Inhibition", "setting": "N1ICD (cleaved Notch1); EL1989 tumors 4 hours after last dose, 8 mg/kg (Mon, Wed, Fri)x3, p <0.0001", "result": "79.2 (<0.0001) %"}, {"measurement": "% N1ICD Inhibition", "setting": "N1ICD (cleaved Notch1); EL1997 tumors 4 hours after last dose, 8 mg/kg (Mon, Wed, Fri)x4, p <0.0001", "result": "67.9 (<0.0001) %"}, {"measurement": "inhibition at 8 mg/kg", "setting": "N1ICD (cleaved Notch1); Homo sapiens, 4 h, EL1986 tumors 4 hours after last dose, (Mon, Wed, Fri)x5, p <0.0001", "result": 84.9, "unit": "%"}, {"measurement": "inhibition at 8 mg/kg", "setting": "N1ICD (cleaved Notch1); Homo sapiens, 4 h, EL2056 tumors 4 hours after last dose, (Mon, Wed, Fri)x5, p <0.0001", "result": 83.5, "unit": "%"}, {"measurement": "inhibition at 1.5 mg/kg", "setting": "N1ICD (cleaved Notch1); Homo sapiens, A2780, 4 h, A2780 tumors 4 hours after last dose, 1.5 mg/kg, QDx26, p <0.0001", "result": 59, "unit": "%"}, {"measurement": "inhibition at 3 mg/kg", "setting": "N1ICD (cleaved Notch1); Homo sapiens, A2780, 4 h, A2780 tumors 4 hours after last dose, (BID)QDx7 + (BID)Q2Dx7, p 0.0004", "result": 50.7, "unit": "%"}, {"measurement": "inhibition at 3 mg/kg", "setting": "N1ICD (cleaved Notch1); [5]", "result": 58.6, "unit": "%"}, {"measurement": "inhibition at 3 mg/kg", "setting": "N1ICD (cleaved Notch1); Homo sapiens, A2780, 4 h, A2780 tumors 4 hours after last dose, QDx21, p <0.0001", "result": 62.8, "unit": "%"}, {"measurement": "inhibition at 6 mg/kg", "setting": "N1ICD (cleaved Notch1); Homo sapiens, A2780, 4 h, A2780 tumors 4 hours after last dose, 6 mg/kg, Q2Dx13, p <0.0001", "result": 60.7, "unit": "%"}, {"measurement": "inhibition at 7 mg/kg", "setting": "N1ICD (cleaved Notch1); Homo sapiens, A2780, 4 h, A2780 tumors 4 hours after last dose, 7 mg/kg, Q2Dx13, p <0.0001", "result": 65.9, "unit": "%"}, {"measurement": "inhibition at 8 mg/kg", "setting": "N1ICD (cleaved Notch1); [5]", "result": 71.7, "unit": "%"}, {"measurement": "inhibition at 10 mg/kg", "setting": "N1ICD (cleaved Notch1); Homo sapiens, A2780, 4 h, A2780 tumors 4 hours after last dose, Q2Dx11, p <0.0001", "result": 68.5, "unit": "%"}, {"measurement": "inhibition at 10 mg/kg", "setting": "N1ICD (cleaved Notch1); [5]", "result": 74.8, "unit": "%"}, {"measurement": "inhibition at 10 mg/kg", "setting": "N1ICD (cleaved Notch1); Homo sapiens, A2780, 4 h, A2780 tumors 4 hours after last dose, Q3Dx8, p <0.0001", "result": 55.3, "unit": "%"}, {"measurement": "inhibition at 8 mg/kg", "setting": "N1ICD (cleaved Notch1); Homo sapiens, A-375, 4 h, A-375 tumors 4 hours after last dose, (Mon, Wed, Fri)x4, p <0.0001", "result": 77.5, "unit": "%"}, {"measurement": "inhibition at 8 mg/kg", "setting": "N1ICD (cleaved Notch1); Homo sapiens, HCT-116, 4 h, HCT 116 tumors 4 hours after last dose, (Mon, Wed, Fri)x4, p =0.0005", "result": 73, "unit": "%"}, {"measurement": "inhibition at 8 mg/kg", "setting": "N1ICD (cleaved Notch1); Homo sapiens, HEL 92.1.7, 4 h, HEL 92.1.7 tumors 4 hours after last dose, Q2dx14, p <0.0001", "result": 56.7, "unit": "%"}, {"measurement": "inhibition at 8 mg/kg", "setting": "N1ICD (cleaved Notch1); Homo sapiens, K562, 4 h, K-562 tumors 4 hours after last dose, (Mon, Wed, Fri)x4, p <0.0001", "result": 47.6, "unit": "%"}, {"measurement": "inhibition at 8 mg/kg", "setting": "N1ICD (cleaved Notch1); Homo sapiens, SW480, 4 h, SW480 tumors 4 hours after last dose, (Mon, Wed, Fri)x5, p =0.0002", "result": 72.5, "unit": "%"}, {"measurement": "inhibition at 8 mg/kg", "setting": "N1ICD (cleaved Notch1); Homo sapiens, U-87 MG, 4 h, U-87 MG tumors 4 hours after last dose, (Mon, Wed, Fri)x4, p <0.0001", "result": 87.8, "unit": "%"}, {"measurement": "atropisomer 2 (minor atropisomer) in equilibrium with atropisomer 1", "setting": "[4]; aqueous solutions", "result": "8-9%"}, {"measurement": "atropisomer 2 (minor atropisomer) in equilibrium with atropisomer 1", "setting": "[4]; organic solvents", "result": "1-2%"}]}]}
